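Tested at 5 concentrations; 48 h exposure; 96-well plates; endpoints linearly interpolated, else capped at highest concentration. At the GI50, growth is halved. TGI marks complete inhibition of growth.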
How the values were obtained:
Test in all cases: inhibition of tumour cell growth, NCI panel, 48 h
MDA-N = tested on: MDA-N
SR leukemia = tested on: SR leukemia
HCT-116 colon = tested on: HCT-116 colon
SNB-19 CNS = tested on: SNB-19 CNS
K-562 leukemia = tested on: K-562 leukemia
MCF7 breast = tested on: MCF7 breast
SK-MEL-28 melanoma = tested on: SK-MEL-28 melanoma
NCI-H23 lung = tested on: NCI-H23 lung
SF-268 CNS = tested on: SF-268 CNS
RXF 393 renal = tested on: RXF 393 renal

| SMILES | TGI (MDA-N) | TGI (SR leukemia) | TGI (HCT-116 colon) | TGI (SNB-19 CNS) | TGI (K-562 leukemia) | TGI (MCF7 breast) | TGI (SK-MEL-28 melanoma) | TGI (NCI-H23 lung) | TGI (SF-268 CNS) | TGI (RXF 393 renal) | GI50 (SR leukemia) | GI50 (HCT-116 colon) | GI50 (SNB-19 CNS) | GI50 (RXF 393 renal) | GI50 (K-562 leukemia) | GI50 (MCF7 breast) | GI50 (SK-MEL-28 melanoma) | GI50 (NCI-H23 lung) | GI50 (SF-268 CNS) |
| --- | --- | --- | --- | --- | --- | --- | --- | --- | --- | --- | --- | --- | --- | --- | --- | --- | --- | --- | --- |
| COc1ccc(N2C(=O)C3c4[nH]c5ccc(C)cc5c4C4CCC(C(C)C)CC4C3C2=O)cc1 (stereo not drawn) | > 100 µM | > 100 µM | > 100 µM | > 100 µM | > 100 µM | > 100 µM | > 100 µM | > 100 µM | > 100 µM |  |  |  |  |  |  |  |  |  |  |
| CC(=O)O[C@]12CCCCCCC1C1(O)C(O)CCC[C@H]12 (stereo partly drawn) |  | > 100 µM | > 100 µM | > 100 µM | > 100 µM |  | > 100 µM | > 100 µM | > 100 µM | > 100 µM |  |  |  |  |  |  |  |  |  |
| CC1=NN(C(=O)CC(=O)Nc2cccc(Cl)c2)C(=O)C1N=Nc1ccc(S(N)(=O)=O)cc1 (stereo not drawn) |  | > 100 µM | > 100 µM | > 100 µM |  |  | > 100 µM | > 100 µM | > 100 µM | > 100 µM |  |  |  |  |  |  |  |  |  |
| COc1cc(C2SCC(=O)N2NC(=O)c2ccc(NC(C)=O)cc2)cc(OC)c1OC (stereo not drawn) |  |  | > 100 µM | > 100 µM | > 100 µM | > 100 µM | > 100 µM | > 100 µM | > 100 µM | > 100 µM |  |  |  |  |  |  |  |  |  |
| C#CC(C)(C)Oc1cc(OC)c2c(=O)c3ccccc3n(C)c2c1 | 31.1 µM | 14.9 µM | > 100 µM | 93.8 µM | 55.5 µM | > 100 µM | 42.6 µM |  | 73 µM | 84.8 µM |  |  |  |  |  |  |  |  |  |
| COc1ccc(/C=N/Nc2[nH]c(=S)nc3[nH]ncc23)cc1 |  | > 100 µM | > 100 µM | 59.2 µM | > 100 µM | > 100 µM | > 100 µM | > 100 µM | > 100 µM | > 100 µM |  |  |  |  |  |  |  |  |  |
| O=C1c2ccccc2S(=O)(=O)c2ccccc21 | > 100 µM |  | > 100 µM | > 100 µM | > 100 µM | > 100 µM | > 100 µM | > 100 µM | > 100 µM | > 100 µM |  |  |  |  |  |  |  |  |  |
| O=C(c1cccs1)N(C(=S)N1CCN(c2ccccc2)CC1)c1ccccc1 |  | > 100 µM | > 100 µM | > 100 µM | > 100 µM |  | > 100 µM | > 100 µM | > 100 µM | > 100 µM |  |  |  |  |  |  |  |  |  |
| COc1ccccc1C1C(C#N)=C(N)OC2=C1C(=O)CCC2 (stereo not drawn) |  | > 100 µM | > 100 µM | > 100 µM | > 100 µM | > 100 µM | > 100 µM | > 100 µM | > 100 µM | > 100 µM | 14.2 µM | > 100 µM | > 100 µM | > 100 µM | > 100 µM | > 100 µM | > 100 µM | > 100 µM | > 100 µM |
| Cn1c(N)c(/C=N/NC(=O)CC#N)c(=O)n(C)c1=O | > 100 µM | > 100 µM | > 100 µM | > 100 µM |  | > 100 µM | > 100 µM |  | > 100 µM | > 100 µM |  |  |  |  |  |  |  |  |  |
| O=C1c2cc(Cl)ccc2-n2c(noc2=O)C2CSCN12 (stereo not drawn) | > 100 µM | > 100 µM | > 100 µM | > 100 µM | > 100 µM | > 100 µM | > 100 µM |  | > 100 µM | > 100 µM |  |  |  |  |  |  |  |  |  |
| N#Cc1c(N)c(-c2ccc(Cl)cc2)c(F)c2ccccc12 | > 100 µM |  | > 100 µM | > 100 µM | > 100 µM | > 100 µM | > 100 µM | > 100 µM | > 100 µM | 58.3 µM |  |  |  |  |  |  |  |  |  |
| CC1(C)CC(=O)C(/C=N/c2nc(-c3ccc(Br)cc3)cs2)=C(O)C1 | > 100 µM |  | > 100 µM | > 100 µM |  | > 100 µM | > 100 µM | 83.9 µM |  |  |  |  |  |  |  |  |  |  |  |
| c1ccc(C2=NN3CN(N2)c2ccccc2OCCCOc2ccccc23)cc1 |  | > 100 µM | > 100 µM | > 100 µM | > 100 µM |  | > 100 µM | > 100 µM | > 100 µM | > 100 µM |  |  |  |  |  |  |  |  |  |
| COc1cc(C2C(Cl)C(=O)N2c2ccc(Br)cc2)cc(I)c1O (stereo not drawn) | > 100 µM | > 100 µM | > 100 µM | > 100 µM | > 100 µM | > 100 µM |  | > 100 µM | > 100 µM |  |  |  |  |  |  |  |  |  |  |
| CN(C)c1ccc(-c2nc(-c3cc4c(ccc5ccccc54)oc3=O)cs2)cc1 | > 100 µM | > 100 µM | > 100 µM | > 100 µM | > 100 µM | > 100 µM | > 100 µM |  | > 100 µM | > 100 µM |  |  |  |  |  |  |  |  |  |
| COC(=O)C12CC(C3CC31)C1CC12 (stereo not drawn) |  | > 100 µM | > 100 µM | > 100 µM | > 100 µM |  | > 100 µM | > 100 µM | > 100 µM |  |  |  |  |  |  |  |  |  |  |
| Oc1ccc(-c2c3c(nc4c2CCc2ccc(Br)cc2-4)-c2cc(Br)ccc2CC3)cc1 | 40.7 µM |  | 53.7 µM | 46.9 µM |  | 43.1 µM | 38.9 µM | 38.7 µM | 39.9 µM |  |  |  |  |  |  |  |  |  |  |
| O=C(c1ccccc1F)c1c(NCc2ccccc2)c(=O)c1=O | > 100 µM |  | > 100 µM | > 100 µM | > 100 µM | > 100 µM | > 100 µM | > 100 µM | > 100 µM | > 100 µM |  |  |  |  |  |  |  |  |  |
| Cc1cnc(Cl)nc1C(C#N)c1nc2ccccc2n1C (stereo not drawn) | > 100 µM |  | 51.2 µM | > 100 µM |  |  | > 100 µM | > 100 µM | > 100 µM | > 100 µM |  |  |  |  |  |  |  |  |  |
| CCCCCCCCCCCCC(=O)NCC(=O)NC(Cc1ccccc1)C(=O)Oc1ccc([N+](=O)[O-])cc1 (stereo not drawn) | > 100 µM | > 100 µM | > 100 µM | > 100 µM |  | > 100 µM |  | > 100 µM | > 100 µM | > 100 µM |  |  |  |  |  |  |  |  |  |
| COc1ccccc1C(=O)c1c(N2CCCCC2)c(=O)c1=O | > 100 µM |  | > 100 µM | > 100 µM | > 100 µM | > 100 µM | > 100 µM | > 100 µM | > 100 µM | > 100 µM |  |  |  |  |  |  |  |  |  |
| O=C1/C(=C/c2cccc(Oc3ccccc3)c2)N=C(c2ccccc2)N1c1nc2ccc(Sc3ccccc3)cc2[nH]1 | 35.8 µM |  | > 100 µM | > 100 µM | > 100 µM | > 100 µM | > 100 µM | > 100 µM | > 100 µM | > 100 µM |  |  |  |  |  |  |  |  |  |
